Assay results reported in patent US8993619B2, “Cyclic bridgehead ether DGAT1 inhibitors” (Novartis AG, priority 2012, dated 2015).

Key:
human (His)6DGAT1 = biological target: T1, human (His)6DGAT1 (Homo sapiens, UniProt O75907); experiment: DGAT1 Inhibition Assay; format: biochemical; details: membrane preparation from Sf9 cells overexpressing human (His)6DGAT1; LC/MS/MS readout
T1 construct: made in house; host or cells: Sf9 insect cells (membrane preparation)
T1 sequence (O75907 1-488): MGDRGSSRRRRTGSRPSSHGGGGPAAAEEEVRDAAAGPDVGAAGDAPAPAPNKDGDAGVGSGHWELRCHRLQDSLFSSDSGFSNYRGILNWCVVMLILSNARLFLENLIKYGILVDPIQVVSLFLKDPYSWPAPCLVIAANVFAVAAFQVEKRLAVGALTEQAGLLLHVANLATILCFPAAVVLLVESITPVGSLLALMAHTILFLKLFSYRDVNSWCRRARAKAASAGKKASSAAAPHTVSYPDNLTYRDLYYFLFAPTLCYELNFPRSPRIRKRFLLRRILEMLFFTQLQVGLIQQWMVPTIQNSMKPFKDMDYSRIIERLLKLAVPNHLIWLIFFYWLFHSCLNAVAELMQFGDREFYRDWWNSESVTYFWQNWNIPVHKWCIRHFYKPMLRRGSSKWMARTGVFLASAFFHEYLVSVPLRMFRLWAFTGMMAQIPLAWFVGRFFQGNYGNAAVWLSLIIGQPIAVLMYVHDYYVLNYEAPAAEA
Description: The enzyme preparation used in this assay is a membrane preparation from Sf9 cells overexpressing human (His)6DGAT1. During all steps samples were chilled to 4° C. Sf9 cells expressing human (His)6DGAT1 were thawed at room temperature and re-suspended at a 10:1 ratio (mL buffer/g of cells) in 50 mM HEPES, 1× Complete Protease Inhibitor, pH 7.5. The re-suspended pellet was homogenized for 1 min using a Brinkman PT 10/35 homogenizer with a 20 mm generator. Cells were lysed using Avestin Emulsiflex (chilled to 4° C.) at 10000-15000 psi. Lysate was centrifuged at 100,000×g for 1 h at 4° C. Supernatant was removed and pellets were re-suspended in 50 mM HEPES, 1× Complete Protease Inhibitor, pH 7.5 at ⅙ the volume of supernatant. Re-suspended pellets were pooled and homogenized with 10 strokes of a Glas-Col motor driven teflon pestle on setting 70. The protein concentration of the membrane preparation was quantified using BCA protein assay with 1% SDS. The membrane preparation was aliquoted, frozen on dry ice, and stored at −80° C.
For 50 mL, 25 mL of 0.2 M HEPES stock buffer, 0.5 mL of 1 M MgCl2 ([…]), and 24.5 mL of milli-Q H2O are added to the 55 mL Wheaton Potter-Elvehjem homogenizer. Enzyme preparation (0.1 mL) is added to buffer and the mixture is homogenized with 5 strokes on ice using the Glas-Col variable speed homogenizer system on setting 70.
For 50 mL, 0.5 mL 10 mM diolein is added to 9.5 mL of EtOH in a 50 mL Falcon screw cap conical centrifuge tube. Five mL of 10 mM sodium acetate pH 4.5 is added followed by 0.5 mL of 10 mM oleoyl-CoA. Finally, the remaining 4.5 mL of 10 mM sodium acetate pH 4.5 is added followed by 30 mL of milli-Q H20. The solution should be gently agitated by hand to induce mixing. The final concentrations of EtOH and sodium acetate are 20% and 2 mM, respectively.
Dry compounds are dissolved in the appropriate volume of DMSO to a final concentration of 10 mM. […] All dilutions are performed in DMSO in a Greiner 384-well microplate. • 1. 2 μL of compound in DMSO is added to the appropriate wells. […] 25 μL of enzyme mix is added to all wells and plate(s) are incubated for 10 min at RT. • 3. […] Plate(s) are vortexed using Troemner multi-tube vortexer (setting 7 for 10 sec). • 4. 25 μL of substrate mix is added to all wells. Plate(s) are vortexed using Troemner multi-tube vortexer (setting 7 for 10 sec). Plate(s) are incubated for 30 min at RT. • 5. 10 μL of 20% acetic acid quench is added to all wells. Plate(s) are vortexed using Troemner multi-tube vortexer (setting 7 for 10 sec). • 6. 50 μL of 1-butanol w/ glyceryl tripalmitoleate internal standard is added to all wells. • 7. Plate(s) are sealed with super pierce strong plate sealer using the thermo-sealer. • 8. Plate(s) are vortexed using Troemner multi-tube vortexer (setting 10 for 5 min). • 9. Plate(s) are centrifuged at 162×g (1000 rpm for GH-3.8 rotor) for 5 min using Beckman GS-6R tabletop centrifuge.
Where indicated, tripalmitolein was used as an internal standard to control for instrument variation.
Column: Thermo Betabasic 4, 2.1×20 mm
Solvent: 10 mM Ammonium Formate, 0.1% Formic Acid, 2% water, 98% Methanol
Isocratic run 0.5 ml per minute
Data is converted to % inhibition prior to curve fitting using the following equation: […]

DGAT1 in C2C12 cells = biological target: T2, DGAT1 in C2C12 cells (Mus musculus, UniProt Q9Z2A7); experiment: Cellular assay to measure activity of DGAT1 inhibitors in mammalian cells (C2C12); format: cell-based; details: C2C12 mouse skeletal muscle cells, 250 μM oleate, 2 h, LC/MS readout
T2 construct: endogenous in cells; host or cells: C2C12 mouse skeletal muscle cells
T2 sequence (Q9Z2A7 1-498): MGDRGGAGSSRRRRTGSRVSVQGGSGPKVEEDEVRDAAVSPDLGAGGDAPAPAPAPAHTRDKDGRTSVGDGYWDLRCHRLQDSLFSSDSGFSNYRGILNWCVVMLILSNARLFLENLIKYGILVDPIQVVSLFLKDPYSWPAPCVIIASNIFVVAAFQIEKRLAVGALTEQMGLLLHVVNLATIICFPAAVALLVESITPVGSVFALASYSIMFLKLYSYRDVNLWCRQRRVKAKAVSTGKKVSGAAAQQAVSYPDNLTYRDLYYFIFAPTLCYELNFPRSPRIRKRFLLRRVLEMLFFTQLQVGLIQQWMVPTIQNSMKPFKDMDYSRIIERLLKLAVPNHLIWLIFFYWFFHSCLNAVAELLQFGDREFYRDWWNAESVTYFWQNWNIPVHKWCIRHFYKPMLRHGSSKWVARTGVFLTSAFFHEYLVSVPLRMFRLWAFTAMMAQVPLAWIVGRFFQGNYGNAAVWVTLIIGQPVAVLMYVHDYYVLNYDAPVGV
Description: C2C12 cells are an immortal mouse skeletal muscle cell line showing an 8-fold enrichment form DGAT1 versus DGAT2. C2C12 cells were routinely cultured in 150 cm2 flasks with DMEM (25 mM glucose) containing 10% FBS, 4 m M L-glutamine, 100 U/ml penicillin and 100 μg/ml streptomycin (30 ml per flask), at 37° C., 5% CO2 and 95% humidity. All studies were performed on cells at passage 10 or less.
C2C12 cells were seeded in 96-well plates in DMEM containing […] glucose and 10% FBS, 18 h (at 37° C.) prior to assay (all wells of the plate are used). […] Compounds were added at 1:3 dilution, 11 points and DMSO control, the starting concentration was usually 40 μM. Each point was dosed in quadruplicate allowing 2 compounds to be dosed per plate. The medium was removed at the end of the incubation and 200 μl/well of 1-butanol added. The 1-butanol contained an internal standard, tripalmitolein (2 μM). The plates were sealed with an adhesive plate sealer and left at room temperature for at least 30 min, then spun down at 209×g for 5 min.
Butanolic extracts were transferred to 384-well LC-MS plates (80 μl/well) and the plate heatsealed with a foil plate sealer. The 384-well plates containing sample were spun down at 209×g for 5 min prior to loading on the LC-MS.
Where indicated, tripalmitolein was used as an internal standard to control for instrument variation. HPLC conditions as above.

Row | IC50 (human (His)6DGAT1) [nM] | IC50 (DGAT1 in C2C12 cells) [nM] | SMILES
1 | 120 | 16 | CC(C)(C)c1nnc(Nc2ccc(-c3ccc(C45CCC(CC(=O)O)(CC4)CO5)cc3)cc2)o1 [Example 20, 2-(1-(4′-((5-(tert-butyl)-1,3,4-oxadiazol-2-yl)amino)-[1,1′-biphenyl]-4-yl)-2-oxabicyclo[2.2.2]octan-4-yl)acetic acid]
2 | 360 | 944 | O=C(O)CC12CCC(c3ccc(-c4ccc(Nc5nnc(C6CCC6)o5)cn4)cc3)(CC1)OC2 [Example 21, (1-{4-[5-(5-cyclobutyl-[1,3,4]oxadiazol-2-ylamino)-pyridin-2-yl]-phenyl}-2-oxa-bicyclo[2.2.2]oct-4-yl)-acetic acid]
3 | 1700 | 296 | CC(C)(C)c1nnc(Nc2ccc(-c3ccc(C45CCC(CC(=O)O)(CC4)O5)cc3)cc2)o1 [Example 22, 2-(4-(4′-((5-(tert-butyl)-1,3,4-oxadiazol-2-yl)amino)-[1,1′-biphenyl]-4-yl)-7-oxabicyclo[2.2.1]heptan-1-yl)acetic acid]
4 | 84 | 267 | CC(C)(C)c1nnc(Nc2ccc(-c3ccc(C45CCC(CCC(=O)O)(CC4)O5)cc3)cc2)o1 [Example 23, 3-(4-(4′-((5-(tert-butyl)-1,3,4-oxadiazol-2-yl)amino)-[1,1′-biphenyl]-4-yl)-7-oxabicyclo[2.2.1]heptan-1-yl)propanoic acid]
